“And” between values parts separate entries of the source, which are not always exact repeats. Equal entries are not always repeated.
Tests used:
hP2X3 = molecular target: T1, hP2X3 (Homo sapiens, UniProt P56373); assay: FLIPR intracellular calcium assay, hP2X3; format: cell-based; settings: human P2X3-HEK cells, agonist at EC75
T1 construct: host or cells: HEK (hP2X3-HEK)
T1 sequence (P56373 1-397): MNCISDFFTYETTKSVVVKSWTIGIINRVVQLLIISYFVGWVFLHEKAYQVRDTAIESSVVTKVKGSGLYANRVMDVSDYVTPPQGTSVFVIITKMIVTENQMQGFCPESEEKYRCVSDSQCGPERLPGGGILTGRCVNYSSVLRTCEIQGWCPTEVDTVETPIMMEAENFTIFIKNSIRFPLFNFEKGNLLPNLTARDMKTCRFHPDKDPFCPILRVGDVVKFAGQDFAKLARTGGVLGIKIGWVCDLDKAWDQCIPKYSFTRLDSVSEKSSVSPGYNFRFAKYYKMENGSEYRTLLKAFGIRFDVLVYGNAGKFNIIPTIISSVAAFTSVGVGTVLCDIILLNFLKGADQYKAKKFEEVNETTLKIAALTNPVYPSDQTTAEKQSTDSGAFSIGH
Description: (§1) The FLIPR® assay utilizes cells which express human or rat P2X3 or P2X2/3 receptors. Recombinant cells expressing hP2X3 (Cat #6188) and hP2X2/3 (Cat #6179) were procured from Chantest Corp. Rat P2X2 (NCBI Accession No: U14414) was amplified by PCR from PC12 cDNA (a rat adrenal medulla cell line). The PCR product obtained containing the protein coding sequence of rat P2X2 was cloned into EcoRV-digested and dephosphorylated vector plRES-puro3 within the multiple cloning site (MCS). See, FIG. 1A.
(§2) (i) Intracellular Calcium Assay Protocol for Screening Compounds
(§3) Cryo-vial containing 6×10^6 cells (human P2X3-HEK/human P2X2/3-TRex293/rat P2X2/3-TRex293/rat P2X3 TRex-CHO) was thawed in a 37° C. water bath. Cells were suspended in 20 mL of respective cell plating media (See annexure for composition) in a 50 mL centrifuge tube. The cell viability was checked with the help of Trypan Blue dye. Upon washing, cells were plated in a black 384-well clear bottomed, sterile poly-D-lysine coated plate such that, each well contained 10,000 cells (15,000/well for hP2X3) in 30 μL cell plating media. The plate was incubated in a 5% CO2 incubator at 37° C. for 24 h.
(§4) The next day, prior to the assay, the cell plating media was removed from each well by decanting and gentle tapping. Thirty μL of FLIPR Calcium 4 dye solution was added to each well. The plate was incubated at 37° C. for 45 min (60 min for hP2X3). The plate was next equilibrated at room temperature for 15 minutes before placing it in a 384 well FLIPR for the assay.
(§5) Compounds were dissolved in DMSO and serially diluted following 11 point half log (3.16 fold) dilution with a starting concentration of 2 mM. Dilutions were mixed with assay buffer just before performing the assay.
(§6) Compounds were added to the respective wells of the assay-ready cell plate with the help of the FLIPR and fluorescence readings were captured for 5 min to observe any possible agonistic property of the compounds. The plate was then incubated at room temperature for 15 min. The cells were stimulated with respective agonist EC75 concentration and the fluorescence readings were captured for another 5 min by FLIPR. The difference in fluorescence readings in presence of the compounds were compared with that of the control wells (wells having no compound) to calculate the inhibitory potency of the compounds. The IC50 values of the compounds were determined using the Graph pad Prism software.
(§7) (ii) Cell Plating Media for hP2X3-HEK and hP2X2/3-TRex293 Cells • DMEM/F12 (1:1) HAM media (Invitrogen; Cat #11039) • 1×NEAA (Invitrogen; Cat #11140) • 25 mM HEPES (Invitrogen; Cat #15630) • 1 mM sodium pyruvate (Invitrogen; Cat #11360) • 10% tetracycline negative FBS (PAA; Cat #A15-209) • 1 μg/mL doxycycline (Clontech; Cat #63131) [for hP2X2/3-TRex293 cells only]
(§8) (v) Assay Buffer Composition • HBSS (Invitrogen Cat #14025) • 20 mM HEPES (Invitrogen Cat #15630) • 0.01% F127 (Sigma Cat #P2443) • 1.8 mM CaCl2 (Sigma Cat #C5080) • pH adjusted to 7.4
(§9) (vi) Dye Solution Composition • 1× FLIPR Calcium 4 dye in assay buffer (Molecular devices Cat #R8141) • 1.8 mM Probenecid (Sigma Cat #P8761) • pH adjusted to 7.4

hP2X2/3 = molecular target: T2, hP2X2/3 (Homo sapiens, UniProt P56373+Q9UBL9); assay: FLIPR intracellular calcium assay, hP2X2/3; format: cell-based; settings: human P2X2/3-TRex293 cells, agonist at EC75
T2 construct: host or cells: TRex293 (hP2X2/3-TRex293), doxycycline-induced
T2 sequence (P56373 1-397): T1 sequence (P56373 1-397)
T2 sequence (Q9UBL9 1-471): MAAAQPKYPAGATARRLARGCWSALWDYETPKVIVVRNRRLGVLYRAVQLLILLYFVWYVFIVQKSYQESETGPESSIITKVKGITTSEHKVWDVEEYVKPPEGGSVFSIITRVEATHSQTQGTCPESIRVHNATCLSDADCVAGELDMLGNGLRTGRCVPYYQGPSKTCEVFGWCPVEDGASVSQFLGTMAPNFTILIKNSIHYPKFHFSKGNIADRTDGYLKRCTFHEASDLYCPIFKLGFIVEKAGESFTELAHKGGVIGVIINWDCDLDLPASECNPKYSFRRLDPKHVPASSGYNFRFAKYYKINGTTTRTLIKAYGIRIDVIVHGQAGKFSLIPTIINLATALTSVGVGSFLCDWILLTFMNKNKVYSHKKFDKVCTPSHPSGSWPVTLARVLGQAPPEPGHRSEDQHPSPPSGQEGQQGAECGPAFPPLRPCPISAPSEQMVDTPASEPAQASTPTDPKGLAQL
Description: as §1, §2, §3, §4, §5, §6, §7, §8, §9

Row | SMILES | IC50 (hP2X3) | IC50 (hP2X2/3)
1 | CC(=O)N1CCN(c2nc(N[C@@H](c3cnc4ccccc4c3)C3CC3)c3c(cnn3C(C)C(C)C)n2)CC1 (stereo partly shown) [Example 62] | 1 to 100 nM | 100 to 1000 nM
2 | CC(=O)N1CCN(c2nc(N[C@H](C)c3cnc4ccccc4c3)c3nn(C(C)C)c(Br)c3n2)CC1 [Example 98] | 1 to 100 nM | 1000 to 10000 nM
3 | CC[C@H](C)n1ncc2nc(N3CCN(C(N)=O)CC3)nc(NC(c3ccc4c(cnn4CC)c3)C3CC3)c21 (stereo partly shown) [Example 80] | 1 to 100 nM | 1000 to 10000 nM
4 | CC(=O)N1CCN(c2nc(NC(C)(C)Cc3ccc(Cl)cc3)c3nn(C(C)C)c(C)c3n2)CC1 [Example 101] | 100 to 1000 nM | 1000 to 10000 nM
5 | CCC(C)n1ncc2nc(-c3cccnn3)nc(N[C@@H](c3cnc4ccccc4c3)C3CC3)c21 (stereo partly drawn) [Example 127, (1-sec-Butyl-5-pyridazin-3-yl-1H-pyrazolo[4,3-d]pyrimidin-7-yl)-((R)-cyclopropyl-quinolin-3-yl-methyl)-amine] | 1 to 100 nM | 1000 to 10000 nM
6 | CC(=O)N1CCN(c2nc(N[C@H](C)c3cnc4ccccc4c3)c3c(n2)c(Br)nn3C(C)C)CC1 [Example 100] | 1 to 100 nM | 1000 to 10000 nM
7 | CCC(C)n1ncc2nc(N3CCOC(C#N)C3)nc(N[C@@H](c3cnc4ccccc4c3)C3CC3)c21 (stereo partly shown) [Example 76] | 100 to 1000 nM | 1000 to 10000 nM
8 | CCC(C)n1ncc2nc(-c3cnn(CCO)c3)nc(N[C@H](C)c3cnc4ccccc4c3)c21 (stereo partly drawn) [Example 113, 2-{4-[1-sec-Butyl-7-((R)-1-quinolin-3-yl-ethylamino)-1H-pyrazolo[4,3-d]pyrimidin-5-yl]-pyrazol-1-yl}-ethanol] | 1 to 100 nM | 1000 to 10000 nM
9 | CCC(C)n1ncc2nc(N3CCN(C(C)=O)CC3)nc(N[C@@H](c3cnc4ccccc4c3)C3CC3)c21 (stereo partly shown) [Example 56] | 1 to 100 nM | 100 to 1000 nM
10 | CC[C@H](C)n1ncc2nc(N3CCN(C(C)=O)CC3)nc(NC(COC)c3cnc4ccccc4c3)c21 (stereo partly shown) [Example 82] | 1 to 100 nM | 1000 to 10000 nM
11 | CCC(CC)n1ncc2nc(N3CCN(C(C)=O)CC3)nc(NC(C)c3cnc4ccc(F)cc4c3)c21 (stereo not shown) [Example 42] | 1 to 100 nM | 100 to 1000 nM
12 | CC(=O)N1CCN(c2nc(N[C@H](C)c3cnc4ccccc4c3)c3c(cnn3CC(C)C)n2)CC1 [Example 16] | 1 to 100 nM | 1000 to 10000 nM
13 | CCC(C)n1ncc2nc(N3CCN(C(C)=O)CC3)nc(NCC3(c4ccc(Cl)cc4)CCC3)c21 (stereo not shown) [Example 31] | 1 to 100 nM | 1000 to 10000 nM
14 | CC(C)n1ncc2nc(N3CCN(C)C(=O)C3)nc(N[C@H](C)c3cnc4ccccc4c3)c21 [Example 15] | 1 to 100 nM | 1000 to 10000 nM
15 | CCC(C)n1cc2nc(N3CCN(C(C)=O)CC3)nc(NC(C)(C)Cc3ccc(Cl)cc3)c2n1 (stereo not shown) [Example 6] | 100 to 1000 nM | 1000 to 10000 nM
16 | CCC(CC)n1ncc2nc(-n3ccnn3)nc(N[C@@H](c3cnc4ccccc4c3)C3CC3)c21 [Example 74] | 1 to 100 nM | 100 to 1000 nM

Row | SMILES | IC50 (hP2X3) | IC50 (hP2X2/3)
17 | CCC(C)n1nc(C2CC2)c2nc(N3CCN(C(C)=O)CC3)nc(N[C@H](C)c3cnc4ccccc4c3)c21 (stereo partly drawn) [Example 93, 1-{4-[1-sec-Butyl-3-cyclopropyl-7-((R)-1-quinolin-3-yl-ethylamino)-1H-pyrazolo[4,3-d]pyrimidin-5-yl]-piperazin-1-yl}-ethanone] | 1 to 100 nM | 1000 to 10000 nM
18 | CCC(C)n1ncc2nc(-c3cnn(CCF)c3)nc(N[C@H](C)c3cn4ccc(C)cc4n3)c21 (stereo partly shown) [Example 123] | 1 to 100 nM | 1000 to 10000 nM and 100 to 1000 nM
19 | CCC(C)n1ncc2nc(N3CCC(C(N)=O)CC3)nc(N[C@@H](c3cnc4ccccc4c3)C3CC3)c21 (stereo partly shown) [Example 75] | 1 to 100 nM | 1000 to 10000 nM
20 | CCC(C)n1ncc2nc(C(=O)NC3CC3)nc(N[C@@H](c3cnc4ccccc4c3)C3CC3)c21 (stereo partly drawn) [Example 124, 1-sec-Butyl-7-[((R)-cyclopropyl-quinolin-3-yl-methyl)-amino]-1H-pyrazolo[4,3-d]pyrimidine-5-carboxylic Acid Cyclopropylamide] | 1 to 100 nM | 1000 to 10000 nM
21 | CCN1CCN(c2nc(N[C@H](C)c3cnc4ccccc4c3)c3c(cnn3C(C)C)n2)CC1=O [Example 23] | 1 to 100 nM | 1000 to 10000 nM
22 | CC[C@H](C)n1ncc2nc(N3CCN(C(N)=O)CC3)nc(NC(C)c3cnc4cc(F)c(F)cc4c3)c21 (stereo partly shown) [Example 68] | 1 to 100 nM | 100 to 1000 nM
23 | CCC(CC)n1ncc2nc(N3CCN(C(C)=O)CC3)nc(N[C@H](CC)c3cnc4ccccc4c3)c21 [Example 35] | 1 to 100 nM | 100 to 1000 nM
24 | CCC(CC)n1ncc2nc(N3CCN(C(C)=O)CC3)nc(NC(c3cnc4ccc(F)cc4c3)C3CC3)c21 (stereo not shown) [Example 65] | 1 to 100 nM | 100 to 1000 nM
25 | CC(=O)N1CCN(c2nc(N[C@H](C)c3cnc4ccccc4c3)c3c(n2)c(C#N)nn3C(C)C)CC1 [Example 104] | 1 to 100 nM | > 10000 nM
26 | Cn1cc(-c2nc(N[C@@H](c3cnc4ccccc4c3)C3CC3)c3c(cnn3C3CCOCC3)n2)cn1 [Example 117] | 1 to 100 nM | 1000 to 10000 nM
27 | CCC(C)n1nc(C#N)c2nc(N3CCN(C(C)=O)CC3)nc(N[C@H](C)c3cnc4ccccc4c3)c21 (stereo partly drawn) [Example 91, 5-(4-Acetyl-piperazin-1-yl)-1-sec-butyl-7-((R)-1-quinolin-3-yl-ethylamino)-1H-pyrazolo[4,3-d]pyrimidine-3-carbonitrile] | 1 to 100 nM | 1000 to 10000 nM
28 | CC(=O)N1CCN(c2nc(N[C@H](C)c3cnc4ccccc4c3)c3nn(C(C)C)c(Cl)c3n2)CC1 [Example 99] | 1 to 100 nM | 1000 to 10000 nM
29 | CCC(C)n1ncc2nc(N3CCN(C(N)=O)CC3)nc(N[C@H](C)c3cnc4ccccc4c3)c21 (stereo partly shown) [Example 85] | 1 to 100 nM | 100 to 1000 nM
30 | CCC(C)n1ncc2nc(N3CCN(S(N)(=O)=O)CC3)nc(N[C@@H](c3cnc4ccccc4c3)C3CC3)c21 (stereo partly drawn) [Example 108, 4-{1-sec-Butyl-7-[((R)-cyclopropyl-quinolin-3-yl-methyl)-amino]-1H-pyrazolo[4,3-d]pyrimidin-5-yl}-piperazine-1-sulfonic acid amide] | 1 to 100 nM | 1000 to 10000 nM
31 | CC(=O)N1CCN(c2nc(NC(C)(C)Cc3ccc(Cl)cc3)c3nn(C(C)C)cc3n2)CC1 [Example 3] | 100 to 1000 nM | 1000 to 10000 nM
32 | CCC(CC)n1ncc2nc(N3CCN(C(C)=O)CC3)nc(NC(C)c3ccc(OC(C)C)cc3)c21 (stereo not shown) [Example 47] | 1 to 100 nM | 1000 to 10000 nM
